From patent US20180215727A1, “LYSYL OXIDASE-LIKE 2 INHIBITORS AND USES THEREOF” (PharmAkea, Inc., priority 2015, published 2018) come the findings set out here.

Counter-ions that a name gives are not always drawn.

This assay deals with T1, human LOXL2 (Homo sapiens, UniProt Q9Y4K0).
T1 construct: expressed in transfected cells; secreted protein in 10-20x concentrated conditioned media
T1 sequence (Q9Y4K0 26-774): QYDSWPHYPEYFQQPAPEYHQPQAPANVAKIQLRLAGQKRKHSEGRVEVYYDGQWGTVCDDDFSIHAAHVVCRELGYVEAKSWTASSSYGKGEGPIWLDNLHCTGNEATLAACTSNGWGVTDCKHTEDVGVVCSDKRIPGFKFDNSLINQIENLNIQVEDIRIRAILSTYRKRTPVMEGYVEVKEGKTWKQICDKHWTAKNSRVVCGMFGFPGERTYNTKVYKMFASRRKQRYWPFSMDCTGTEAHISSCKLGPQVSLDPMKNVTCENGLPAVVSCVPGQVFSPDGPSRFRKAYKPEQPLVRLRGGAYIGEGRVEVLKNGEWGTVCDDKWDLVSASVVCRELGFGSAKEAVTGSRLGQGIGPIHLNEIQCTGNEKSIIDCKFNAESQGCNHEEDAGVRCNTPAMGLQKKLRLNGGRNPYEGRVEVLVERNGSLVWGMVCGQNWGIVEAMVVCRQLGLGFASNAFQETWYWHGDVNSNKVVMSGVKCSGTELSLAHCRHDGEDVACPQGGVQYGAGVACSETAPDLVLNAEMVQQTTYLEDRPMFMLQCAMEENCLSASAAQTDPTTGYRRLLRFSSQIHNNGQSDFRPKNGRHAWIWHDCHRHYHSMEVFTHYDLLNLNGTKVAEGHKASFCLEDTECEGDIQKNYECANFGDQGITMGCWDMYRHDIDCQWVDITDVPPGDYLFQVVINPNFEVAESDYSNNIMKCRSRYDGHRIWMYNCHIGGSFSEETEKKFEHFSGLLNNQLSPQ
Nature of the assay: Human LOXL2 Amine Oxidase Activity Assay (Amplex Red fluorescence). It is filed as biochemical. The settings on record: concentrated conditioned media from CHO cells stably expressing human LOXL2, test compound incubated 2 h at 37° C., pH8, DAP substrate. The protocol: Example B-1: Human LOXL2 Amine Oxidase Activity Assay
LOXL2 amine oxidase activity is evaluated by measuring Amplex Red fluorescence using 10-20× concentrated conditioned media from CHO cells stably expressing human LOXL2. To assay for amine oxidase activity, 10 μL of the concentrated conditioned media is incubated with 2 μL of test compound in DMSO and 73 μL Assay Buffer (50 mM Borate Buffer, pH8) for 2 h at 37° C. After the 2 h incubation, 5 μl of 10 mM 1,5-Diaminopentane (DAP) diluted in Assay Buffer and 10 μl of Amplex Red Mix (8.5 μl Assay Buffer+0.5 μl of 10 mM Amplex Red+1 μl of 500 U/ml Horseradish Peroxidase) are added and the plate mixed and immediately placed on the FlexStaion for fluorescence measurements. Fluorescence is read in kinetic mode every 2 min for 1 hour at excitation=544 and emission=590. The amine oxidase activity is calculated from the slope of the linear portion of the curve.

In general, IC50 refers to the concentration at which inhibition is half-maximal. Read a high IC50 as weaker potency in that assay. `C#CCOc1cccc2c(=O)cc(CN)oc12` [Compound 1-53, 2-(Aminomethyl)-8-(prop-2-yn-1-yloxy)-4H-chromen-4-one hydrochloride] gave an IC50 of 300 to 1000 nM.
Compound `CN(C)C(=O)c1ccc2oc(CN)cc(=O)c2c1` [Compound 1-18, 2-(Aminomethyl)-N,N-dimethyl-4-oxo-4H-chromene-6-carboxamide hydrochloride] displayed an IC50 greater than 1000 nM.
As to `NCc1cc(=O)c2cc(C(=O)N3C[C@@H](O)[C@H](F)C3)ccc2o1` (racemic) [Compound 1-25, Racemic-trans-2-(aminomethyl)-6-(3-fluoro-4-hydroxypyrrolidine-1-carbonyl)-4H-chromen-4-one hydrochloride], the IC50 was 300 to 1000 nM.
Next, `NCc1cc(=O)c2cc(-c3ccccn3)ccc2o1` [Compound 1-7, 2-(Aminomethyl)-6-(pyridin-2-yl)-4H-chromen-4-one hydrochloride]: less than 300 nM; `COc1cc2c(=O)cc(CN)oc2cc1OCc1ccccc1` [Compound 1-69, 2-(Aminomethyl)-7-(benzyloxy)-6-methoxy-4H-chromen-4-one hydrochloride]: less than 300 nM; `NCc1cc(=O)c2ccc(OCc3ccc(C(F)(F)F)cc3)cc2o1` [Compound 1-62, 2-(Aminomethyl)-7-((4-(trifluoromethyl)benzyl)oxy)-4H-chromen-4-one hydrochloride]: less than 300 nM.
For `NCc1cc(=O)c2cc(-c3cnc4ccccc4c3)ccc2o1` [Compound 1-9, 2-(Aminomethyl)-6-(quinolin-3-yl)-4H-chromen-4-one hydrochloride] the value was less than 300 nM; for `NCc1cc(=O)c2cc(-c3cn(-c4ccccc4)nn3)ccc2o1` [Compound 1-14, 2-(Aminomethyl)-6-(1-phenyl-1H-1,2,3-triazol-4-yl)-4H-chromen-4-one hydrochloride], less than 300 nM.
`NCc1cc(=O)c2cc(-c3cccnc3)ccc2o1` [Compound 1-8, 2-(Aminomethyl)-6-(pyridin-3-yl)-4H-chromen-4-one hydrochloride] came in with an IC50 of less than 300 nM.
Next, `CN(C)C(=O)COc1ccc2c(=O)cc(CN)oc2c1` [Compound 1-32, 2-((2-(Aminomethyl)-4-oxo-4H-chromen-7-yl)oxy)-N,N-dimethylacetamide hydrochloride]: 300 to 1000 nM; `NCc1cc(=O)c2ccc(Oc3cccc(C(F)(F)F)c3)cc2o1` [Compound 1-67, 2-(Aminomethyl)-7-(3-(trifluoromethyl)phenoxy)-4H-chromen-4-one hydrochloride]: less than 300 nM; `NCc1cc(=O)c2cc(OCC(=O)O)ccc2o1` [Compound 1-34, 2-((2-(Aminomethyl)-4-oxo-4H-chromen-6-yl)oxy)acetic acid hydrochloride]: 300 to 1000 nM.
For `NCc1cc(=O)c2cc(-c3ccccc3)ccc2o1` [Compound 1-6, 2-(Aminomethyl)-6-phenyl-4H-chromen-4-one hydrochloride] the value was less than 300 nM.
Consider `C#CCOc1ccc2c(=O)cc(CN)oc2c1` [Compound 1-45, 2-(aminomethyl)-7-(prop-2-yn-1-yloxy)-4H-chromen-4-one hydrochloride], for which the half-inhibitory concentration (IC50) is less than 300 nM.
The compound `Cn1cc(-c2ccc3c(=O)cc(CN)oc3c2)nn1` [Compound 1-39, 2-(Aminomethyl)-7-(1-methyl-1H-1,2,3-triazol-4-yl)-4H-chromen-4-one hydrochloride] had an IC50 of less than 300 nM.
For `NCc1cc(=O)c2ccc(-c3cn(-c4ccccc4)nn3)cc2o1` [Compound 1-33, 2-(Aminomethyl)-7-(1-phenyl-1H-1,2,3-triazol-4-yl)-4H-chromen-4-one hydrochloride] the value was less than 300 nM; for `CS(=O)(=O)CCNC(=O)c1ccc2oc(CN)cc(=O)c2c1` [Compound 1-26, 2-(Aminomethyl)-N-(2-(methylsulfonyl)ethyl)-4-oxo-4H-chromene-6-carboxamide hydrochloride], 300 to 1000 nM.
Next, `NCc1cc(=O)c2ccc(Nc3cnn(-c4ccccc4)c3)cc2o1` [Compound 1-70, 2-(Aminomethyl)-7-((1-phenyl-1H-pyrazol-4-yl)amino)-4H-chromen-4-one hydrochloride]: less than 300 nM; `NCc1cc(=O)c2ccc(OCC#Cc3ccccc3)cc2o1` [Compound 1-63, 2-(Aminomethyl)-7-((3-phenylprop-2-yn-1-yl)oxy)-4H-chromen-4-one hydrochloride]: less than 300 nM; `NCc1cc(=O)c2ccc(OCc3cc4ccccc4s3)cc2o1` [Compound 1-66, 2-(Aminomethyl)-7-(benzo[b]thiophen-2-ylmethoxy)-4H-chromen-4-one hydrochloride]: less than 300 nM.
For `NCc1cc(=O)c2ccc(OCCOc3ccccc3)cc2o1` [Compound 1-46, 2-(Aminomethyl)-7-(2-phenoxyethoxy)-4H-chromen-4-one hydrochloride] the value was less than 300 nM.
`CN(C)C(=O)COc1ccc2oc(CN)cc(=O)c2c1` [Compound 1-35, 2-((2-(Aminomethyl)-4-oxo-4H-chromen-6-yl)oxy)-N,N-dimethylacetamide hydrochloride] yielded an IC50 of 300 to 1000 nM.
In the case of `NCc1cc(=O)c2cc(C(=O)NCCn3cncn3)ccc2o1` [Compound 1-21, N-(2-(1H-1,2,4-Triazol-1-yl)ethyl)-2-(aminomethyl)-4-oxo-4H-chromene-6-carboxamide hydrochloride], the IC50 was in the range of 300 to 1000 nM.
Next, `C#Cc1ccc2c(=O)cc(CN)oc2c1` [Compound 1-31, 2-(aminomethyl)-7-ethynyl-4H-chromen-4-one hydrochloride]: 300 to 1000 nM; `CC(C)(O)C#Cc1ccc2oc(CN)cc(=O)c2c1` [Compound 1-4, 2-(Aminomethyl)-6-(3-hydroxy-3-methylbut-1-yn-1-yl)-4H-chromen-4-one hydrochloride]: less than 300 nM; `NCc1cc(=O)c2ccc(Br)cc2o1` [Compound 1-2, 2-(Aminomethyl)-7-bromo-4H-chromen-4-one hydrochloride]: less than 300 nM.
In turn, `NCc1cc(=O)c2cc(-c3cn(CCO)nn3)ccc2o1` [Compound 1-16, 2-(Aminomethyl)-6-(1-(2-hydroxyethyl)-1H-1,2,3-triazol-4-yl)-4H-chromen-4-one hydrochloride] yielded an IC50 of 300 to 1000 nM.
`NCc1cc(=O)c2ccc(N3CCN(C(=O)c4ccccc4)CC3)cc2o1` [Compound 1-41, 2-(Aminomethyl)-7-(4-benzoylpiperazin-1-yl)-4H-chromen-4-one hydrochloride] returned an IC50 of less than 300 nM.
`COc1ccc(COc2ccc3c(=O)cc(CN)oc3c2)cc1` [Compound 1-64, 2-(Aminomethyl)-7-((4-methoxybenzyl)oxy)-4H-chromen-4-one] yielded an IC50 of less than 300 nM.
In the case of `COC(=O)[C@@H]1CCN(C(=O)c2ccc3oc(CN)cc(=O)c3c2)C1` [Compound 1-24, Methyl (R)-1-(2-(aminomethyl)-4-oxo-4H-chromene-6-carbonyl)pyrrolidine-3-carboxylate hydrochloride], the IC50 was in the range of 300 to 1000 nM.
For `NCc1cc(=O)c2cc(C(=O)N3CCC(C(=O)O)C3)ccc2o1` (single isomer, unassigned) [Compound 1-37, (R) or (S)-1-(2-(Aminomethyl)-4-oxo-4H-chromene-6-carbonyl)pyrrolidine-3-carboxylic Acid hydrochloride] the value was greater than 1000 nM; for `CN(C)C(=O)Cn1cc(-c2ccc3oc(CN)cc(=O)c3c2)nn1` [Compound 1-17, 2-(4-(2-(Aminomethyl)-4-oxo-4H-chromen-6-yl)-1H-1,2,3-triazol-1-yl)-N,N-dimethylacetamide hydrochloride], less than 300 nM; for `Cn1cc(-c2ccc3oc(CN)cc(=O)c3c2)cn1` [Compound 1-12, 2-(Aminomethyl)-6-(1-methyl-1H-pyrazol-4-yl)-4H-chromen-4-one hydrochloride], less than 300 nM.
Next, `NCc1cc(=O)c2ccc(OCc3cccc(C(=O)Nc4ccccc4)c3)cc2o1` [Compound 1-48, 3-(((2-(Aminomethyl)-4-oxo-4H-chromen-7-yl)oxy)methyl)-N-phenylbenzamide hydrochloride]: less than 300 nM; `NCc1cc(=O)c2ccc(Oc3ccccc3)cc2o1` [Compound 1-68, 2-(Aminomethyl)-7-phenoxy-4H-chromen-4-one hydrochloride]: less than 300 nM.
